Measured values as given in patent publication EP0218400A1, “Assay methods for chemotherapeutic agents” (DAMON BIOTECH, INC., priority 1985, dated 1987).
Like-named read-outs stand apart in the source and are kept apart here.

Tests used:
[1] = tested on: Original P388 cells; test: In vivo growth of encapsulated original P388 lymphoma cells in nude mice; settings: for inhibition at 100 mg/kg: Mus musculus, P388, iv
Protocol: (§1) In the experiments that follow, the drugs and other agents tested were administered to the host animal by injection at the various times called for in the protocol being tested. At various periods after treatment, the mice were killed by cervical dislocation. The peritoneal cavity of each mouse was washed with PBS or medium and floating microcapsules were aspirated using a large bore plastic Pasteur pipette. Microcapsules were transferred to 15 ml tubes and washed 3 to 4 times with PBS to remove host peritoneal cells. The washed microcapsules were aspirated into 1 ml serological pipettes, allowed to sediment, and the volume of packed microcapsules was determined. Microcapsules were then transferred to a glas dounce homogenizer (7 ml volume) and disrupted with 3 strokes of an A-tolerance plumger. Cells suspensions were filtered through nylon mesh to remove the disrupted membranes. The suspensions containing tumor cells were centrifuged and the pellet was resuspended in 0.25 to 0.5 ml of complete medium. After mixing equal volumes of cell suspension and trypan blue, viable cell counts were determined using a hemocytometer.
(§2) The number of tumor cells per 1 ml of packed microcapsules was determined as follows: a = ? where b = total number of tumor cells in the suspension, and c = total volume of microcapsules used for the preparation of this suspension.
(§3) By comparing the number of tumor cells in 1 ml of microcapsules derived from non-treated and drug-treated mice, the percent inhibition of tumor cell growth was calculated: [formula] where ac = number of tumor cells from the non-treated control microcapsules, and ae = number of tumor cells from the drug treated microcapsules.
(§4) Since drug-resistance is one of the most important causes of failure in chemotherapy, it is crucial that a predictive assay be able to distinguish between effective and non-effective drugs for particular tumors. […] One day later the mice received by i.v. administration Adriamycin (6 mg/kg), Vinblastin (1 mg/kg) or Cyclophosphamide (100 mg/kg). Five days after administration some of the mice were sacrificed, the microcapsules were recovered and the numbers of tumor cells inside the capsules were determined. The remaining mice received a second administration and the microcapsules were recovered from the remaining mice 3 days afterwards. The results are shown in Table 7 and correlate well with the known characteristics of P388 cell line and its variant.

[2] = tested on: P388 Resistant Cells; test: In vivo growth of encapsulated adriamycin-resistant P388 lymphoma cells in nude mice; settings: for inhibition at 100 mg/kg: Mus musculus, P388, iv
Protocol: as §1, §2, §3, §4

[3] = tested on: human colon adenocarcinoma (HT-29) cells; test: In vivo growth of encapsulated HT-29 cells in C57BL/6 mice
Protocol: as §1, §2, §3
A second human cancer cell line was also used to further analyze in vivo effects of different drugs on the growth of tumors. Encapsulated human colon adenocarcinoma (HT-29) cells were again transplanted into C57BL/6 mice and various drugs were administered after 3 days either by intravenous or by intraperitoneal injection. Animals were sacrificed after 4 days and number of cells per capsule were counted to calculate inhibition rates for the various treatment procedures. […] In fact, 5-FU is a preferred chemotherapeutic agent for patients with gastrointestinal malignancies.

[4] = tested on: MOLT-4 human lymphoma cells; test: In vivo sensitivity of encapsulated MOLT-4 cells in nude mice, NCI schedule; settings: Adriamycin 6 mg/kg, 15 days after transplantation
Protocol: as §1, §2, §3
In the next experiment various drugs were administered in vivo according to schedules and doses typically used for screening antitumor effects of the drugs at the National Cancer Institute, Developmental Therapeutics program.
MOLT-4 human lymphoma cells were encapsulated and transplanted into peritoneum of nude mice. Doses of various drugs were applied i.v. at 1, 5 and 9 days after tumor cell transplantation.

[5] = tested on: human Melanoma LOX cells; test: In vivo susceptibility of encapsulated LOX melanoma cells in nude mice; settings: for sensitivity of encapsulated LOX cells to the treatment (in words): i.v. days 1, 5, 9; for No. of viable tumor cells per 1 ml. of capsules: i.v. days 1, 5, 9, Adriamycin 6, BCNU 20, CY 100, 5-Fu 60 mg/kg
Protocol: as §1, §2, §3
In this series of experiments, cells of a fourth human cancer type, Melanoma LOX cells, were used. LOX cells have recently been proposed as the model for experimental treatment at the NCI Development Therapeutics Program. Following i.p. inoculation of the suspension of LOX Melanoma cells into nude mice, various drugs were administered i.v. and survival of the treated mice was determined (Schoemaker et al., Proceeding American Association for Cancer Research, 26, 1302, 1985) (mice transplanted with the non-encapsulated tumor cells were considered tumor-free if they survived during 3 months of observation). In parallel experiments encapsulated LOX Melanoma cells were transferred into nude mice and drugs were inoculated i.v. 1, 5 and 9 days at the dose and schedule utilized by the Dr. Shoemaker's procedure.

[6] = tested on: LOX Melanoma cells; settings: i.v.; Adriamycin 6, BCNU 20, CY 100, 5-Fu 60 mg/kg; survival during 3 months of observation; nude mice; cited from earlier work
[7] = tested on: Human T cell lymphoma (MOLT-4) cells; test: In vitro drug pretreatment of encapsulated cells, then growth in the peritoneal cavity of mice; assay type: in vivo
Protocol: The encapsulated tumors are preferably incubated at 37° C in medium for 1 to 2 hours. A 25 percent (v/v) suspension can then be prepared (preferably without bovine serum). The suspension can be inoculated in the peritoneal cavity of the host animal (i.e., with a 16 gauge needle).
as §1, §2, §3
Human T cell lymphoma (MOLT-4) cells were encapsulated according to the procedures described above and incubated in vitro in RPMI I640 medium supplemented with 10 percent fetal calf serum, glutamine and antibiotics for one hour of 37°C. During incubation they were exposed to various concentrations of 1,3-B (2-chloroethyl)-1-nitrosourea (BCNU), 5-fluorouracil (5-FU) and adriamycin. The microcapsules were then washed and implanted into the peritoneal cavity (i.p.) of C57BL/6 mice (Animal Production Area NCI-Frederick Cancer Research Facility) using #18-14 needles. After seven days the mice were sacrificed and their peritoneal cavities were washed with PBS and aspirated to collect the microcapsules in a Pasteur pipette. The microcapsules were washed several times from the host peritoneal cells. The microcapsules from the individual mice were counted by transferring them into wells of a 96 well microplate. Using an inverted microscope, the numbers of microcapsules in each well were counted. Each well was washed out and microcapsules were transferred into the glass homogenizer.
Microcapsules were then disrupted, and the suspension was filtered, centrifugated and reconstituted with PBS. The concentration and total number of cells were counted using a hemocytometer.

[8] = tested on: human lung carcinoma A549 cells; test: In vivo susceptibility of encapsulated A549 cells; settings: i.v. days 2, 5, 9; for No. of tumor cells per 1 ml of capsules / percent Inhibition: Adriamycin 6, BCNU 20, CY 100 mg/kg
Protocol: as §1, §2, §3
The sensitivity of human lung carcinoma A549 cells to the drugs was assessed 12 and 14 days after transplantation of encapsulated tumor cells. The treatments were applied i.v. 2, 5 and 9 days after microcapsule transplantation (Table 5).

[9] = tested on: MOLT-4 lymphoma cells; test: In vivo inhibition of encapsulated Molt-4 lymphoma growth in C57BL/6 mice; parameters: species or system human
Protocol: as §1, §2, §3
MOLT-4 lymphoma cells were also used in an in vivo assay. As before, the MOLT-4 cells were encapsulated and transplanted i.p. into C57BL/6 mice. On day 1 following the transplantation of the encapsulated cells, the mice were treated i.v. intravenous (i.v.) with BCNU, adriamycin or cyclophosphamide (CY). This approach allowed the testing of cyclophosphamide (CY) which is inefficient in vitro because it must be metabolized to obtain an active cytotoxic derivative. Ten days after transplantation, the encapsulated cells were retrieved and the tumor cells contained therein were counted. […]

[10] = 5 + 3 days after treatment (3 days after second administration), Adriamycin 6, Vinblastin 1, Cyclophosphamide 100 mg/kg i.v.
[11] = 5 days after treatment, i.v. one day after inoculation, Adriamycin 6, Vinblastin 1, Cyclophosphamide 100 mg/kg
[12] = Mus musculus, HT-29, ip, i.p. 3 days after transplantation, 5-Fu 150 mg/kg, CY 250 mg/kg, Adriamycin 20 mg/kg, 4 days
[13] = i.p. 3 days after transplantation, 5-Fu 150 mg/kg, CY 250 mg/kg, Adriamycin 20 mg/kg, 4 days
[14] = Mus musculus, MOLT-4, iv, 360 h, i.v. days 1, 5, 9, Cyclophosphamide 100 mg/kg, 5-Fu 60 mg/kg, nude mice
[15] = i.v. days 1, 5, 9, Cyclophosphamide 100 mg/kg, 5-Fu 60 mg/kg, nude mice
[16] = 25 µg/ml in vitro for one hour, then 7 days i.p. in C57BL/6 mice
[17] = 100 µg/ml in vitro for one hour, then 7 days i.p. in C57BL/6 mice
[18] = 72 h, 5 + 3 days after treatment (3 days after second administration), Adriamycin 6, Vinblastin 1, Cyclophosphamide 100 mg/kg i.v.
[19] = Mus musculus, MOLT-4, iv, i.v. on day 1, Adriamycin 10 mg/kg, BCNU 100 mg/kg, CY 200 mg/kg, capsules retrieved ten days after transplantation
[20] = i.v. on day 1, Adriamycin 10 mg/kg, BCNU 100 mg/kg, CY 200 mg/kg, capsules retrieved ten days after transplantation

Structure (SMILES)	No. cells/ml [1, 10]	No. cells/ml [1, 11]	No. cells/ml [2, 10]	No. cells/ml [2, 11]	No. of cells per capsule [3, 13]	Total No. of tumor cells [3, 13]	No of viable tumor cells per 1 ml of capsules [4, 15]	sensitivity of encapsulated LOX cells to the treatment (in words) [5]	No. of viable tumor cells per 1 ml. of capsules [5]	% survived mice transplanted with nonencapsulated tumor cells [6]	No. of tumor cells per capsule [7, 16]	No. of tumor cells per capsule [7, 17]	No. of tumor cells per 1 ml of capsules ([8]; 12 days after transplantation)	percent Inhibition ([8]; 12 days after transplantation)	No. of tumor cells per 1 ml of capsules ([8]; 14 days after transplantation)	percent Inhibition ([8]; 14 days after transplantation)	No. of cells per capsule [9, 20]	Total No. of tumor cells [9, 20]	also measured
CCC1(O)CC2CN(CCc3c([nH]c4ccccc34)C(C(=O)OC)(c3cc4c(cc3OC)N(C)C3C(O)(C(=O)OC)C(OC(C)=O)C5(CC)C=CCN6CCC43C65)C2)C1 (centres unmarked) [Vinblastin]	6 x 10^6	9 x 10^6	23 x 10^6	15 x 10^6	–	–	–	–	–	–	–	–	–	–	–	–	–	–	% Inhibition [1, 10]: 89%; % Inhibition [1, 11]: 60%; % Inhibition [2, 10]: 21%; % Inhibition [2, 11]: 12%; inhibiting the growth of the drug-resistant variant (in words) ([2]; Adriamycin 6 mg/kg, Vinblastin 1 mg/kg i.v.): Neither Adriamycin nor Vinblastin in the doses administered was effective
O=c1[nH]cc(F)c(=O)[nH]1 [5-Fu, 5-fluorouracil]	–	–	–	–	0.6 x 10^4	0.6 x 10^6	41.0 x 10^6	least efficient	29 x 10^5	0%	3 x 10^3	10^2	–	–	–	–	–	–	inhibition at 150 mg/kg [3, 12]: 70%; sensitivity of encapsulated HT-29 cells (in words) ([3]; in vivo): more sensitive to 5-FU than to the other drugs tested; inhibition of tumor cell proliferation (in words) ([4]; 5-FU 60 mg/kg i.v. days 1, 5, 9): significantly less efficient; inhibition at 60 mg/kg [4, 14]: 30%; inhibition at 25 µg/mL ([7]; Mus musculus, MOLT-4, ip, 25 µg/ml in vitro for one hour, then 7 days i.p. in C57BL/6 mice, read-out: % Inhibition): 40%; inhibition at 100 µg/mL ([7]; Mus musculus, MOLT-4, ip, 100 µg/ml in vitro for one hour, then 7 days i.p. in C57BL/6 mice, read-out: % Inhibition): 98%
O=P1(N(CCCl)CCCl)NCCCO1 (centres unmarked) [CY, cyclophosphamide]	1.3 x 10^6	0.4 x 10^6	1.1 x 10^6	0.4 x 10^6	1.6 x 10^4	1.1 x 10^6	1.9 x 10^6	most sensitive	0.7 x 10^5	40%	–	–	13.5 x 10^5	78%	39.0 x 10^5	53%	171	10 x 10^4	inhibition at 100 mg/kg [1, 18]: 97%; inhibition at 100 mg/kg [1, 11]: 98%; inhibition at 250 mg/kg [3, 12]: 20%; inhibition at 100 mg/kg [2, 18]: 96%; inhibition at 100 mg/kg ([2]; Cyclophosphamide 100 mg/kg i.v., both time points): 96 to 98%; inhibition at 100 mg/kg [2, 11]: 98%; inhibition at 100 mg/kg [4, 14]: 97%; inhibition at 200 mg/kg [9, 19]: 93.7%; reduction of the number of viable tumor cells in the capsules (in words) ([9]; i.v. on day 1, ten days after transplantation): more effective than BCNU
O=NN(CCCl)C(=O)NCCCl [BCNU, 1,3-B (2-chloroethyl)-1-nitrosourea]	–	–	–	–	–	–	–	most sensitive	2 x 10^5	50%	1 x 10^4	0.1 x 10^4	7.0 x 10^5	88%	15.7 x 10^5	81%	1222	27 x 10^4	No. of tumor cells per capsule ([7]; 6 µg/ml in vitro for one hour, then 7 days i.p. in C57BL/6 mice): 1 x 10^4; inhibition at 6 µg/mL ([7]; Mus musculus, MOLT-4, ip): 86%; inhibition at 25 µg/mL ([7]; Mus musculus, MOLT-4, ip): 86%; inhibition at 100 µg/mL ([7]; Mus musculus, MOLT-4, ip): 98%; reduction of the numbers of tumor cells (in words) [8]: more efficient in this respect than CY; inhibition at 100 mg/kg [9, 19]: 55%
